Measurements reported in US7070917B1, “Determination of sperm concentration and viability for artificial insemination” (priority 2000, dated 2006).

Columns and labels:
sperm cells = test: Toxicity of SYBR-14 staining to sperm cells (decrease in live sperm cells over time); type: cell-based
bull sperm = test: Flow cytometric (FACSCount) determination of sperm viability over staining time in bull ejaculates; type: cell-based; settings: FACSCount blue laser (488 nm); SYBR-14 50 nM with PI 12 μM; replicates at 4 and 6 min staining, room temperature
Protocol: A two-step dilution is necessary for the flow cytometric analyses. First, the sample is diluted 250× in a PBS medium containing 0.1% BSA, (NUNC Intermed Cat# 3478880, Lifetechnologies, Roskilde, Denmark), and second a 20 μl sample is transferred to a Sperm Count tube containing approximately 100,000 beads using reverse manual pipetting. The dyes were added to the Sperm Count tubes less than 12 hours before using the tubes in the analysing procedure. As mentioned above, two different flow cytometers were used, one being a FACSCount equipped with a green (543 nm) laser and the second being a FACSCount equipped with a blue (488 nm) laser.
To each Sperm Count tube to be analysed in the first FACSCount (543 nm), 2 μl of MPR71292 and 2 μl of EHD-2 were added to provide final concentrations of 100 nM and 5 μM, respectively.
To each Sperm Count tube to be analysed in the second FACSCount (488 nm), 5 μl of SYBR-14 and 5 μl of PI were added to provide for final concentrations of 50 nM and 12 μM, respectively.
Prior to opening the Sperm Count tubes, the tubes were whirlmixed for 3 sec in an upside-down position and for 3 sec in a normal position. Whirlmixing were repeated for two sec after addition of the sperm and before each analysis. […] After 4 min, the first replicates were analysed simultaneously on the two flow cytometers and the second replicates were analysed after a 6 min staining period. […]

SYBR-14
decrease in the amount of live sperm cells (sperm cells; SYBR-14 below standard concentrations (25 to 75 nanomolar, about 50 nanomolar)): no decrease
decrease in the amount of live sperm cells (sperm cells; SYBR-14 concentration of 100 nM): 0.6 % pr minute
toxicity to spermatozoa (sperm cells; standard concentrations (100 nM), staining time 10 to 15 minutes): slightly toxic
decrease in sperm viability over time (bull sperm): −0.15±0.07 %/min
